Like-named read-outs stand apart in the source and are kept apart here.

What is called Ki is the equilibrium dissociation constant of an inhibitor or competing ligand from its target. In general, melting point refers to the temperature of the solid-liquid transition.

The target of data set [1] is human 5-HT6 receptor (Homo sapiens (Human), UniProt P50406). The data set is described as follows: 5-HT6 radioligand binding assay (SPA format, [N-methyl-3H]-LSD). The conditions noted are these: human 5-HT6 receptor membranes, 10 nM [N-methyl-3H]-LSD, Ki by Cheng-Prusoff, read-out: human 5HT6 Ki. In outline: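 Human 5-HT6 receptor membranes were incubated overnight at room temperature with 10 nM [N-methyl-3H]-LSD and competitor in 50 mM Tris-HCl pH 7.5, 5 mM MgCl2, 1 mM EDTA, 4% DMSO, read by SPA. Nonspecific binding was defined with 100 μM 5-HT. IC50 came from ten-point duplicate curves; Ki via Cheng-Prusoff.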
human 5-HT6 receptor, sequence (P50406 whole entry): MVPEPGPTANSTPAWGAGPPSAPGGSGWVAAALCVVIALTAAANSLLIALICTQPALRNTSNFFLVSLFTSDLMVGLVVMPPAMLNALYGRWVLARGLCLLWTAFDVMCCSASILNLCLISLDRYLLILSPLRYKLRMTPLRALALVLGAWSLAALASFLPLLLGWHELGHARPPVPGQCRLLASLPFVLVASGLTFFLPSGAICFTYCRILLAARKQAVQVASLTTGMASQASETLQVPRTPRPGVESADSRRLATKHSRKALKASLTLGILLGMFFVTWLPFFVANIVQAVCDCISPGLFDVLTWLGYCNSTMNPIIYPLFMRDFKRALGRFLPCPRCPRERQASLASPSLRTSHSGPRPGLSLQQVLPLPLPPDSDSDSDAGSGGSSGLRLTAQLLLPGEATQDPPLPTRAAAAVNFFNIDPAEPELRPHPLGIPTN

On to `CN1CCc2oc3ccc(S(=O)(=O)c4ccccc4)cc3c2C1.Cl` [Example 27, 2-Methyl-8-(phenylsulfonyl)-1,2,3,4-tetrahydrobenzofuro[3,2c]pyridine hydrochloride], for which the melting point was determined as 272 °C. For the same compound, in data set [1], the Ki stood at 6.5 nM.
As to `Cl.OC(c1ccccc1)c1cc(Cl)c2oc3c(c2c1)CNCC3` (stereo not drawn) [Example 94, (6-chloro-1,2,3,4-tetrahydrobenzofuro[3,2-c]pyridin-8-yl)(phenyl)methanol hydrochloride], the melting point is 260 °C (dec.). The Ki in data set [1] turned out to be 143 nM.
On the same counts, the results for `Cl.Nc1ccc(S(=O)(=O)c2ccc3oc4c(c3c2)CNCC4)cc1` [Example 36, 8-(4-Aminophenylsulfonyl)-1,2,3,4-tetrahydrobenzofuro[3,2-c]pyridine hydrochloride] are 305 to 314 °C (dec.) and 40 nM.
For `CC1NCCc2oc3c(Cl)cc(S(=O)(=O)c4ccccc4)cc3c21.Cl` (single isomer, unassigned; (+)) [Example 82a, (+)-6-chloro-1-methyl-8-(phenylsulfonyl)-1,2,3,4-tetrahydrobenzofuro[3,2-c]pyridine hydrochloride], the melting point was 295 °C (dec.). Further, the Ki in data set [1] (hydrochloride) came out at 56 nM.
As for `O=S(=O)(c1ccccc1)c1cc(Cl)c2oc3c(c2c1)CC(O)CC3` (single isomer, unassigned; (+)) [Example 99, (+)-6-chloro-8-(phenylsulfonyl)-1,2,3,4-tetrahydrodibenzo[b,d]furan-2-ol], the melting point lay within 238 to 242 °C. For the same compound, the inhibition constant (Ki) in data set [1] is 1 nM.
Regarding `Cl.O=S(=O)(c1ccc2oc3c(c2c1)C1CCC(C3)N1)n1ccc2ccc(F)cc21` (stereo not drawn) [Example 59, 2-(6-Fluoro-1H-indol-1-yl)sulfonyl-6,7,8,9,10-pentahydro-7,10-epiminocyclohepta[b]benzofuran hydrochloride], the melting point is 184 to 187 °C. In addition, the Ki in data set [1] is 17 nM.
The matching figures for `Cl.O=S(=O)(c1cccc(F)c1)c1ccc2oc3c(c2c1)C1CCC(C3)N1` (stereo not drawn) [Example 57, 2-(3-Fluorophenyl)sulfonyl-6,7,8,9,10-pentahydro-7,10-epiminocyclohepta[b]benzofuran hydrochloride]: 200 to 210 °C and 133 nM.
In the case of `COc1cc(Cc2ccccc2)cc2c3c(oc12)CCNC3.Cl` [Example 96, 8-benzyl-6-methoxy-1,2,3,4-tetrahydrobenzofuro[3,2-c]pyridine hydrochloride], the melting point fell in the range of 263 to 265 °C. For the same compound, the Ki in data set [1] was 4.9 nM.
`Cl.[O-][S+](c1ccccc1)c1cc(Cl)c2oc3c(c2c1)CNCC3` (stereo not drawn) [Example 93, 6-chloro-8-(phenylsulfinyl)-1,2,3,4-tetrahydrobenzofuro[3,2-c]pyridine hydrochloride]: the melting point is 264 to 272 °C (dec.). The inhibitory constant (Ki) in data set [1] (hydrochloride) came to 10 nM.
As to `Cl.O=S(=O)(c1cccc(C(F)(F)F)c1)c1ccc2c3c(oc2c1)CCNC3` [Example 63, 7-(3-Trifluoromethylphenylsulfonyl)-1,2,3,4-tetrahydrobenzofuro[3,2-c]pyridine hydrochloride], the melting point fell in the range of 290 to 294 °C. For the same compound, the Ki in data set [1] worked out at 2.1 nM.
The matching figures for `CC(c1ccccc1)c1cc(Cl)c2oc3c(c2c1)CNCC3.Cl` (stereo not drawn) [Example 95, 6-chloro-8-(1-phenylethyl)-1,2,3,4-tetrahydrobenzofuro[3,2-c]pyridine hydrochloride]: 245 to 255 °C (dec.) and 7.5 nM.
In the case of `Cl.O=S(=O)(c1ccccc1)c1cc(Cl)c2oc3c(c2c1)C(CO)NCC3` (stereo not drawn) [Example 85, (6-chloro-8-(phenylsulfonyl)-1,2,3,4-tetrahydrobenzofuro[3,2-c]pyridin-1-yl)methanol hydrochloride], the melting point was in the range of 185 to 187 °C. For the same compound, the Ki in data set [1] worked out at 1.6 nM.

For the origin of these results see patent US9067949B2, “Benzofuro[3,2-c] pyridines and related analogs as serotonin sub-type 6 (5-HT6) modulators for the treatment of obesity, metabolic syndrome, cognition and schizophrenia” (Albany Molecular Research, Inc., priority 2011, dated 2015).
